Literature values in publication PMC5085262 (Chemical Science, 2016).

Conditions: no reference given

Oc1cccc2cccnc12 [Quin, 8-hydroxyquinoline]
pKa of the free ligand (phenolate group): ≈ 9.9
